Reference: patent publication US6372243B2, “Low-oxygen fluorocarbon as an agent for ophthalmology” (Pharm pur GmbH, priority 1998, dated 2002)

System: retinal blood vessels
Assay: fluorocarbon inserted into the vitreous area of the rabbit eye, examination for retinal vessel damage
Type: in vivo
Settings: 1.2 ml into one eye each of two rabbits after gas compression of the vitreous body; durations of between two days and six weeks
Description: In fluorescence angiography, a narrowing of the vessels appears from the second post-operative day. As time passes, vessel occlusions, a rarefaction of the capillary bed and the development of microaneurisms appear.
This oxygen-lacking perfluorodecalin was then sterile filtered and injected into one eye each of two rabbits, whereby, prior to the injection, the vitreous body was gas compressed in a known manner. After the gas compression, the gas was […] exchanged for 1.2 ml of the deoxygenated perfluorodecalin, so that about two thirds of the vitreous body area, including the area of the retinal blood vessels, was filled with perfluorodecalin.
After durations of between two days and six weeks, the eyes were examined for vessel damage.

## FC1(F)C(F)(F)C(F)(F)C2(F)C(F)(F)C(F)(F)C(F)(F)C(F)(F)C2(F)C1(F)F (stereo not shown) [oxygen-lacking perfluorodecalin, perfluorodecalin]
  eyes examined for vessel damage, in comparison to the untreated eye: completely normal condition
